Results reported in ChEMBL document CHEMBL1132045, “New growth hormone secretagogues: C-terminal modified sulfonamide-analogues of NN703” (Bioorg Med Chem Lett, 1999).

Species: Rattus norvegicus
Test: Compound was tested in vitro for growth hormone release in rat pituitary model
Assay type: functional

Q: With `CN(C(=O)[C@@H](Cc1ccc2ccccc2c1)N(C)C(=O)/C=C/CC(C)(C)N)[C@H](Cc1cccs1)CN(C)S(C)(=O)=O` as the compound, how does the EC50 read?
A: The EC50 was 3 nM.

Q: How did the EC50 turn out when `CC(=O)NC[C@@H](Cc1ccccc1)N(C)C(=O)[C@@H](Cc1ccc2ccccc2c1)N(C)C(=O)/C=C/CC(C)(C)N` was run?
A: Its EC50 is 25 nM.

Q: Which EC50 does the source give for `CN(C(=O)[C@@H](Cc1ccc2ccccc2c1)N(C)C(=O)/C=C/CC(C)(C)N)[C@@H](CNC(=O)CCCO)Cc1ccccc1` here?
A: Its EC50 is 34 nM.

Q: For `CN(C(=O)[C@@H](Cc1ccc2ccccc2c1)N(C)C(=O)/C=C/CC(C)(C)N)[C@@H](CNS(C)(=O)=O)Cc1ccccc1`, which EC50 is on record?
A: The EC50 was 2.5 nM.

Q: With `CNC(=O)[C@@H](Cc1ccccc1)N(C)C(=O)[C@@H](Cc1ccc2ccccc2c1)N(C)C(=O)/C=C/CC(C)(C)N` [TABIMORELIN] as the compound, how does the EC50 read?
A: The EC50 was 2.7 nM.
